Tests used:
Pseudomonas aeruginosa [1] = assay: Inhibition of quorum sensing system in Pseudomonas aeruginosa MH602 PlasB-gfp(ASV) assessed as inhibition of green fluorescent protein production at 62.5 uM for 20 hrs by fluorescence assay
Pseudomonas aeruginosa [2] = assay: Inhibition of quorum sensing system in Pseudomonas aeruginosa MH602 PlasB-gfp(ASV) assessed as inhibition of green fluorescent protein production at 125 uM for 20 hrs by fluorescence assay
Pseudomonas aeruginosa [3] = assay: Inhibition of quorum sensing system in Pseudomonas aeruginosa MH602 PlasB-gfp(ASV) assessed as inhibition of green fluorescent protein production at 250 uM for 20 hrs by fluorescence assay
[4] = Agonist activity against RhlR in Escherichia coli expressing JLD271/pJN105R2/pSC11-rhlI using CPRG as substrate by spectrophotometric assay
[5] = molecular target: T1, HTH-type quorum-sensing regulator RhlR (Pseudomonas aeruginosa (strain ATCC 15692 / PAO1 / 1C / PRS 101 / LMG12228), UniProt P54292); assay: Agonist activity against RhlR in Pseudomonas aeruginosa PAO-JP2 expressing prhlI-LVAgfp using CPRG as substrate by spectrophotometric assay
T1 sequence (P54292 whole entry): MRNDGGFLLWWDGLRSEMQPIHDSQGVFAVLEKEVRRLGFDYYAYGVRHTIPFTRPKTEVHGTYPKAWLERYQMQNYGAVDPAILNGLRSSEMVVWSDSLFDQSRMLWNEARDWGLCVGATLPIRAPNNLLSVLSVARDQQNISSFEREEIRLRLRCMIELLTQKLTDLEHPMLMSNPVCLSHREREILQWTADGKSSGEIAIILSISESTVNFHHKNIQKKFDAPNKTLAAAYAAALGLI

[6] = Inhibition of quorum sensing system in Pseudomonas aeruginosa PAO1 assessed as inhibition of pyocyanin production at 15 uM incubated for 12 hrs by spectrophotometric assay
[7] = Inhibition of quorum sensing system in Pseudomonas aeruginosa PAO1 assessed as inhibition of elastase production at 15 uM incubated for 12 hrs by Congo red dye based spectrophotometric assay
[8] = Inhibition of quorum sensing system in Pseudomonas aeruginosa PAO1 assessed as inhibition of rhamnolipid production at 15 uM incubated for 12 hrs by spectrophotometric assay
Pseudomonas aeruginosa [9] = assay: Inhibition of biofilm formation in Pseudomonas aeruginosa PAO1 incubated for 12 hrs by crystal violet staining based analysis; type: functional
[10] = Inhibition of quorum sensing system in Pseudomonas aeruginosa PAO1 assessed as decrease in lasI expression at 15 uM incubated for 12 hrs by real-time fluorescent quantitative PCR analysis
[11] = Inhibition of quorum sensing system in Pseudomonas aeruginosa PAO1 assessed as decrease in lasA expression at 15 uM incubated for 12 hrs by real-time fluorescent quantitative PCR analysis
[12] = Inhibition of quorum sensing system in Pseudomonas aeruginosa PAO1 assessed as decrease in pqsR expression at 15 uM incubated for 12 hrs by real-time fluorescent quantitative PCR analysis
[13] = Inhibition of quorum sensing system in Pseudomonas aeruginosa PAO1 assessed as decrease in rhlR expression at 15 uM incubated for 12 hrs by real-time fluorescent quantitative PCR analysis
Escherichia coli [14] = assay: Inhibition of Escherichia coli MT102 harbouring pJBA132 expressing Gfp assessed as inhibition of GFP fluorescence expression at 250 uM incubated for 15 hrs by fluorescence microplate reader analysis
Pseudomonas aeruginosa [15] = assay: Inhibition of Pseudomonas aeruginosa MH602 harboring PlasB::gfp(ASV) reporter assessed as decrease in GFP expression at 250 uM incubated for 22 hrs by fluorescence microplate reader analysis
[16] = molecular target: T2, Transcriptional activator protein LuxR (Vibrio fischeri (strain ATCC 700601 / ES114), UniProt P35327); assay: Antagonist activity against LuxR mediated quorum sensing system in Vibrio fischeri ES114 expressing luxI assessed as decrease in luminescence intensity incubated for 4 to 8 hrs by bioluminescence analysis; parameters: species or system Aliivibrio fischeri
T2 sequence (P35327 whole entry): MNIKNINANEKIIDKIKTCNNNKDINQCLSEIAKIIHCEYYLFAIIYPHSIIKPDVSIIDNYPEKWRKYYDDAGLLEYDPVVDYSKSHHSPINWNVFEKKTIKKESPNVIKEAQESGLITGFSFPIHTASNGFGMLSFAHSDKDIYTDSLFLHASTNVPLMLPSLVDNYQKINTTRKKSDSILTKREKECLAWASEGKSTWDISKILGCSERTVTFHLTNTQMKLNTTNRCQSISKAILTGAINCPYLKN

Pseudomonas aeruginosa [17] = assay: Inhibition of quorum sensing system in Pseudomonas aeruginosa MH602 expressing PlasB::gfp assessed as inhibition of GFP fluorescence expression at 250 uM incubated for 15 hrs by fluorescence microplate reader analysis
[18] = Inhibition of quorum sensing system in Pseudomonas aeruginosa PAO1 assessed as inhibition of pyocyanin production at 250 uM incubated for 17 hrs by spectrophotometric analysis
[19] = Inhibition of quorum sensing system in Pseudomonas aeruginosa PAO1 assessed as inhibition of pyocyanin production at 32 uM incubated for 17 hrs by spectrophotometric analysis
Pseudomonas aeruginosa [20] = assay: Inhibition of Pseudomonas aeruginosa MH602 harboring PlasB::gfp(ASV) reporter assessed as decrease in GFP expression at 125 uM incubated for 22 hrs by fluorescence microplate reader analysis
Pseudomonas aeruginosa [21] = assay: Antagonist activity against quorum sensing system in Pseudomonas aeruginosa PAO-JP2 (plasI-LVAgfp) assessed as inhibition of 3-oxo-C12 HSL induced GFP expression at 100 uM incubated for 6 hrs in presence of 1 uM of 3-oxo-C12 HSL by fluorescence analysis
[22] = molecular target: T3, Transcriptional activator protein LasR (Pseudomonas aeruginosa (strain ATCC 15692 / PAO1 / 1C / PRS 101 / LMG12228), UniProt P25084); assay: Antagonist activity against LasR-mediated quorum sensing system in Pseudomonas aeruginosa PAO1 by spectrophotometric assay
T3 sequence (P25084 whole entry): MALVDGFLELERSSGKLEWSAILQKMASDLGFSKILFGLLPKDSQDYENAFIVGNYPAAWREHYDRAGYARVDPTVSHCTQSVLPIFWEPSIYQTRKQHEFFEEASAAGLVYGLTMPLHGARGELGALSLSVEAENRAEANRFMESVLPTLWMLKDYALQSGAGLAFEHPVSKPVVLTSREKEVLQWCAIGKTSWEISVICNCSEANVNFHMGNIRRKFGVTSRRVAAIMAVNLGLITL

Escherichia coli [23] = assay: Antagonist activity against quorum sensing system in Pseudomonas aeruginosa PAO1 assessed as inhibition of 3OC6HSL- induced GFP expression at 50 uM by fluorescence analysis; conditions: filed as antagonist
Escherichia coli [24] = assay: Inhibition of Escherichia coli MT102 harbouring pJBA132 expressing Gfp assessed as inhibition of GFP fluorescence expression at 62.5 uM incubated for 15 hrs by fluorescence microplate reader analysis
[25] = Antagonist activity against quorum sensing system in Pseudomonas aeruginosa PAO1 transfected with lasB-lacZ reporter gene assessed as inhibition of beta-galactosidase activity incubated for 24 hrs by elastin-Congo red assay
[26] = molecular target: T4, Transcriptional activator protein LasR (Pseudomonas aeruginosa (strain ATCC 15692 / PAO1 / 1C / PRS 101 / LMG12228)) (UniProt P25084); assay: Antagonist activity against LasR-mediated quorum sensing system in Pseudomonas aeruginosa PAO1 assessed as inhibition of pyocyanin production at 200 uM incubated for 13 hrs by spectrophotometric assay; conditions: filed as antagonist
T4 sequence (whole entry): T3 sequence (P25084 whole entry)

## O=C(Cn1cc(-c2ccc(Cl)cc2)nn1)Nc1nc2ccccc2[nH]1
Pseudomonas aeruginosa [1]
  inhibition: 52.9%
Pseudomonas aeruginosa [2]
  inhibition: 60.5%
Pseudomonas aeruginosa [3]
  inhibition: 65%

## CC(C)CCCC(=O)N[C@H]1CCOC1=O
[4]
  EC50: 1420 nM
[5]
  EC50: 1020 nM

## Cc1cccc(NC(=O)NC(=O)CSC(=S)N[C@H]2CCOC2=O)c1
[6]
  inhibition: 34.5%
[7]
  inhibition: 13.7%
[8]
  inhibition: 28.1%
Pseudomonas aeruginosa [9]
  inhibition (INH): 36.2%
[10]
  inhibition: 55.1%
[11]
  inhibition: 64.1%
[12]
  inhibition: 72.5%
[13]
  inhibition: 48.4%

## CCCCCc1cn(CC(=O)Nc2nc3ccccc3[nH]2)nn1
Pseudomonas aeruginosa [1]
  inhibition: 25%
Pseudomonas aeruginosa [2]
  inhibition: 34%
Pseudomonas aeruginosa [3]
  inhibition: 42%

## COc1ccc(-c2cn(CC(=O)Nc3nc4ccccc4[nH]3)nn2)cc1
Pseudomonas aeruginosa [2]
  inhibition: 5.16%
Pseudomonas aeruginosa [3]
  inhibition: 20%

## O=C(CCSc1nc2ccccc2s1)N[C@H]1CCOC1=O
[6]
  inhibition: 15.1%
[8]
  inhibition: 22.2%
Pseudomonas aeruginosa [9]
  inhibition (INH): 38%
[10]
  inhibition: 32.9%

## O=C1Cn2nncc2CNC(=O)C(=O)c2ccccc2NC(=O)Cn2nncc2CNC(=O)C(=O)c2ccccc2N1
Escherichia coli [14]
  inhibition: 18.7%
Pseudomonas aeruginosa [15]
  inhibition: 74%

## O=C(Cc1ccccc1)N[C@H]1CCOC1=O
[16]
  IC50: 600 nM

## O=C1C(Cl)=C(Cl)CN1c1ccccc1
Pseudomonas aeruginosa [17]
  inhibition: 81.7%
[18]
  inhibition: 90%
[19]
  inhibition: 80%

## O=C(CCSc1ccc(Cl)cc1)N[C@H]1CCOC1=O
[6]
  inhibition: 27.5%
[8]
  inhibition: 17.6%
Pseudomonas aeruginosa [9]
  inhibition (INH): 34.1%
[10]
  inhibition: 47.9%
[11]
  inhibition: 58.5%
[12]
  inhibition: 53.5%

## C#CNC(=O)C(=O)c1cc(Br)ccc1NC(=O)CCl
Pseudomonas aeruginosa [15]
  inhibition: 31.8%
Pseudomonas aeruginosa [20]
  inhibition: 65%

## O=C1C(Br)=C(Br)CN1c1ccccc1
Pseudomonas aeruginosa [17]
  inhibition: 80.7%
[18]
  inhibition: 90%
[19]
  inhibition: 80%

## O=C(CSc1nc2ccccc2s1)N[C@H]1CCOC1=O
[6]
  inhibition: 14.2%
[8]
  inhibition: 20.5%
Pseudomonas aeruginosa [9]
  inhibition (INH): 28.6%
[10]
  inhibition: 50.5%

## COc1ccccc1NC(=O)NC(=O)CSC(=S)N[C@H]1CCOC1=O
[6]
  inhibition: 30.3%
[7]
  inhibition: 18.4%
[8]
  inhibition: 16.7%
Pseudomonas aeruginosa [9]
  inhibition (INH): 40.3%
[10]
  inhibition: 39.2%
[12]
  inhibition: 57.5%

## CCCCCCCCCCCC(=O)NC1CCCCC1=O (centres undefined)
Pseudomonas aeruginosa [21]
  inhibition: 30%

## CC1=C(Br)/C(=C(\C)Br)OC1=O
[22]
  IC50: 17400 nM
[6]
  inhibition: 31.6%
[7]
  inhibition: 16.5%
[8]
  inhibition: 25.8%
Pseudomonas aeruginosa [9]
  inhibition (INH): 28.6%
[10]
  inhibition: 26.9%
[12]
  inhibition: 45%
[13]
  inhibition: 58.8%

## C#CNC(=O)C(=O)c1cc(C)ccc1NC(=O)CCl
Pseudomonas aeruginosa [15]
  inhibition: 36.9%
Pseudomonas aeruginosa [20]
  inhibition: 64.6%

## CCOC(=O)/C=C1\CC(NCc2ccc(C)cc2)C(=O)N1Cc1ccc(C)cc1 (centres undefined)
Escherichia coli [23]
  inhibition: 47.9%

## O=C(Cc1ccc(Cl)cc1)N[C@H]1CCOC1=O
[16]
  IC50: 600 nM

## Nc1cccc(N2CC(Cl)=C(Cl)C2=O)c1
Pseudomonas aeruginosa [17]
  inhibition: 80.4%
[18]
  inhibition: 90%
[19]
  inhibition: 80%

## O=C(CC1CCC1)N[C@H]1CCOC1=O
[4]
  EC50: 1780 nM
[5]
  EC50: 1410 nM

## C#CCNC(=O)C(=O)c1ccccc1NC(=O)CCl
Escherichia coli [24]
  inhibition: 56.5%

## O=C(Cc1ccc(-c2ccccc2)cc1)N[C@H]1CCOC1=O
[16]
  IC50: 600 nM

## CCOC(=O)/C=C1\CC(NCc2ccco2)C(=O)N1Cc1ccco1 (centres undefined)
Escherichia coli [23]
  inhibition: 56.9%

## CCCCCCCCCCCC(=O)NC1CCC[C@@H]1O (some centres undefined)
Pseudomonas aeruginosa [21]; filed as antagonist
  inhibition: 70%

## CCCCCCCC(=O)NC1CCCC1
[25]
  IC50: 250000 nM

## O=C(Cc1ccc(I)cc1)N[C@H]1CCOC1=O
[16]
  IC50: 600 nM

## CCCCCCCc1cn(CC(=O)Nc2nc3ccccc3[nH]2)nn1
Pseudomonas aeruginosa [1]
  inhibition: 25%
Pseudomonas aeruginosa [2]
  inhibition: 34%
Pseudomonas aeruginosa [3]
  inhibition: 42%

## CCc1cn(CC(=O)Nc2nc3ccccc3[nH]2)nn1
Pseudomonas aeruginosa [1]
  inhibition: 25%
Pseudomonas aeruginosa [2]
  inhibition: 34%
Pseudomonas aeruginosa [3]
  inhibition: 42%

## CCOC(=O)/C=C1\CC(NCc2ccccc2)C(=O)N1Cc1ccccc1 (centres undefined)
Escherichia coli [23]
  inhibition: 57.9%

## CCCCCCCCCC(=O)CC(=O)Nc1cccc(I)c1
[26]
  inhibition: 67%

## O=C1C(Cl)=C(Cl)CN1c1cccc(O)c1
Pseudomonas aeruginosa [17]
  inhibition: 78%
[18]
  inhibition: 90%
[19]
  inhibition: 80%

## CCCCCCCCCC(=O)CC(=O)Nc1ccc(OC)cc1
[26]
  inhibition: 73%

## CCCCCCCCCC(=O)CC(=O)Nc1cccc(OC)c1
[26]
  inhibition: 93%

## CCCCC(=O)N[C@H]1CCSC1=O
[4]
  EC50: 4870 nM
[5]
  EC50: 3820 nM

## O=C1C(=O)N(C(=O)CCl)c2ccccc21
Pseudomonas aeruginosa [15]
  inhibition: 60.1%
Pseudomonas aeruginosa [20]
  inhibition: 34.7%

## CCCc1cn(CC(=O)Nc2nc3ccccc3[nH]2)nn1
Pseudomonas aeruginosa [1]
  inhibition: 25%
Pseudomonas aeruginosa [2]
  inhibition: 34%
Pseudomonas aeruginosa [3]
  inhibition: 42%

## CCOC(=O)/C=C1\CC(NCc2cccs2)C(=O)N1Cc1cccs1 (centres undefined)
Escherichia coli [23]
  inhibition: 53.5%

From ChEMBL document CHEMBL5230154, “Chemical probe of AHL modulators on quorum sensing in Gram-Negative Bacteria and as antiproliferative agents: A review” (Eur J Med Chem, 2021)
